# Test results published in PubChem BioAssay AID743155 (The Scripps Research Institute Molecular Screening Center, 2013).
# The source made the active and inactive calls. The rule behind the calls is not given here.
# Tested on: Jurkat cells cytotoxicity, ATP luminescence
# Experiment: Jurkat cell viability loss, dose response – luminescence, human T lymphocytes, Round001, cytotoxicity control for T. brucei MetRS inhibitor project, late-stage follow-up (AID 743155)
row,Compound,IC50
1,O=C(NCCc1nc2ccccc2[nH]1)c1ccc(Cl)cc1Cl,> 27.8 µM (inactive)
2,Cc1cccc2[nH]c(CCN(C)C(=O)c3cccc(C4CCNC4)c3)nc12 (centres undefined),> 83.3 µM (inactive)
3,COc1ccccc1NC(=O)CSc1nnc2c(n1)[nH]c1ccc(C)cc12,47.1 µM (inactive)
4,COc1ccc(CCN(C(=S)Nc2ccccc2)C2CC(=O)N(c3ccc(Cl)cc3)C2=O)cc1 (centres undefined),27.2 µM (inactive)
5,O=C(Cn1cc(C(=O)c2ccccc2)c2ccccc21)Nc1cccc(C(F)(F)F)c1,55.5 µM (inactive)
6,O=C(NCCc1nc2ccccc2[nH]1)c1ccc(Cl)cc1,> 27.8 µM (inactive)
7,O=C(NCCc1nc2ccccc2[nH]1)c1c(F)cccc1F,> 83.3 µM (inactive)
8,Cc1cc2cc(C(=O)N3CCCC(c4nc5ccccc5[nH]4)C3)ccc2o1 (centres undefined),> 27.8 µM (inactive)
9,O=C(Cn1cc(C(=O)C(=O)N2CCOCC2)c2ccccc21)NCC1CCCO1 (centres undefined),> 83.3 µM (inactive)
10,O=C(Cn1cc(C(=O)C2CC2)c2ccccc21)Nc1cccc(C(F)(F)F)c1,> 27.8 µM (inactive)
11,Cc1ccc(C(=O)NCCc2nc3ccccc3[nH]2)cc1[N+](=O)[O-],> 27.8 µM (inactive)
12,O=C(Cn1cc(C(=O)COc2ccccc2)c2ccccc21)Nc1cccc(C(F)(F)F)c1,> 27.8 µM (inactive)
13,COc1ccccc1NC(=O)Cn1cc(C(=O)C(=O)N2CCOCC2)c2ccccc21,> 83.3 µM (inactive)
14,CCCCn1c(CCNC(=O)c2ccc(F)cc2)nc2ccccc21,> 27.8 µM (inactive)
15,COc1ccc(CCN(C(=O)c2cccc(F)c2)C2CC(=O)N(c3ccc(Br)cc3)C2=O)cc1 (centres undefined),> 83.3 µM (inactive)
16,Cc1cccc(C(=O)NCCc2nc3ccccc3n2CCOc2ccccc2)c1,> 27.8 µM (inactive)
17,CNC(=S)N(CCc1ccccc1)C1CC(=O)N(c2ccc(Br)cc2)C1=O (centres undefined),> 27.8 µM (inactive)
18,CC(C)c1nc2ccc(C(=O)N(C)CCc3nc4ccc(F)cc4[nH]3)cc2o1,> 83.3 µM (inactive)
19,Cn1c(CCNC(=O)c2ccc(Cl)cc2)nc2ccccc21,> 27.8 µM (inactive)
20,O=C(NCCc1nc2ccccc2[nH]1)c1ccc(Cl)c(Cl)c1,> 83.3 µM (inactive)
21,O=C(Nc1ccc(F)c(Cl)c1)C1CC(=O)n2c(nc3ccccc32)N1 (centres undefined),> 83.3 µM (inactive)
22,COCCc1nc2ccc(C(=O)NCCc3nc4ccc(OC)cc4[nH]3)cc2o1,> 27.8 µM (inactive)
23,CCN(CC)C(=O)C(=O)c1cn(CC(=O)N(CC)c2ccccc2)c2ccccc12,> 27.8 µM (inactive)
24,CCN(CC)C(=O)C(=O)c1cn(CC(=O)Nc2cccc(OC)c2)c2ccccc12,> 27.8 µM (inactive)
25,O=C(Cn1cc(C(=O)C(=O)N2CCCC2)c2ccccc21)Nc1ccccc1,> 83.3 µM (inactive)

row,Compound,IC50
1,O=C(CSc1nnc2c(n1)[nH]c1ccc(Br)cc12)NCc1ccccc1,> 27.8 µM (inactive)
2,CCN(CC)C(=O)C(=O)c1cn(CC(=O)N2CCCc3ccccc32)c2ccccc12,> 83.3 µM (inactive)
3,CCC(=O)c1cn(CC(=O)Nc2cccc(C(F)(F)F)c2)c2ccccc12,> 27.8 µM (inactive)
4,Cc1cccc2[nH]c(C3CCCN(C(=O)c4cccc5cccnc45)C3)nc12 (centres undefined),> 27.8 µM (inactive)
5,CC1Cc2ccccc2N1C(=O)Cn1cc(C(=O)C(=O)N2CCOCC2)c2ccccc21 (centres undefined),> 83.3 µM (inactive)
6,CCc1ccc2c(c1)c1nnc(SCC(=O)Nc3ccc4c(c3)OCO4)nc1n2C,81.1 µM (inactive)
7,O=C(CSC1CC(=O)N(c2cccc(Cl)c2)C1=O)Nc1ccc(Br)cc1 (centres undefined),> 27.8 µM (inactive)
8,COc1ccc(NC(=O)CSc2nnc3c4cc(C)ccc4n(C)c3n2)cc1,> 83.3 µM (inactive)
9,CCc1ccc2[nH]c3nc(SCC(=O)NCc4cccc(OC)c4)nnc3c2c1,> 27.8 µM (inactive)
10,O=C(Cn1cc(C(=O)C(=O)N2CCOCC2)c2ccccc21)NCc1ccccc1,> 83.3 µM (inactive)
11,CC(=O)N(CCc1ccccc1)C1CC(=O)N(c2ccc(Br)cc2)C1=O (centres undefined),> 27.8 µM (inactive)
12,CC(=O)c1cn(CC(=O)Nc2cccc(C(F)(F)F)c2)c2ccccc12,> 27.8 µM (inactive)
13,O=C1CC(NCCc2ccccc2)C(=O)N1c1ccc(Br)cc1 (centres undefined),> 83.3 µM (inactive)
14,CCN(CC)C(=O)C(=O)c1cn(CC(=O)Nc2ccccc2OC)c2ccccc12,> 83.3 µM (inactive)
15,CCN(CCc1nc2ccc(C)cc2[nH]1)C(=O)c1ccc2ncccc2c1,> 83.3 µM (inactive)
16,CC(=O)N(CCc1ccccc1)C1CC(=O)N(c2ccc(Cl)cc2)C1=O (centres undefined),> 27.8 µM (inactive)
17,COc1cccc(NC(=O)C2CC(=O)n3c(nc4ccccc43)N2)c1 (centres undefined),> 83.3 µM (inactive)
18,O=C(Cn1cc(C(=O)c2ccco2)c2ccccc21)Nc1cccc(C(F)(F)F)c1,74 µM (inactive)
19,Cc1ccc2[nH]c3nc(SCC(=O)Nc4ccc(C(F)(F)F)cc4)nnc3c2c1,> 83.3 µM (inactive)
20,CCN(C(=O)Cn1cc(C(=O)C(=O)N2CCOCC2)c2ccccc21)c1ccccc1,> 83.3 µM (inactive)
21,Cc1ccc(CNC(=O)CSc2nnc3c(n2)[nH]c2ccc(C)cc23)cc1,> 27.8 µM (inactive)
22,CCN(CC)C(=O)C(=O)c1cn(CC(=O)Nc2cccc(C(F)(F)F)c2)c2ccccc12,38 µM (inactive)
23,COc1ccc(NC(=O)C2CC(=O)n3c(nc4ccccc43)N2)cc1 (centres undefined),> 83.3 µM (inactive)
24,Cc1cccc(NC(=O)C2CC(=O)n3c(nc4ccccc43)N2)c1 (centres undefined),> 27.8 µM (inactive)
